Marks after values point to notes of the source that are not given here.

The record followed here is patent US10959998B2, “Pharmaceutical use and pharmaceutical composition of pyrroloquinoline quinine, its derivatives and/or its salts” (priority 2015, dated 2021).

Assay [1] concerns endometrial stromal cells. Put plainly: Scratch test (scratch healing, cell migration). As to conditions: for scratch healing: P<0.05. It counts as cell-based, human. On the procedure: Before the cells were plated, horizontal lines were scratched on the back of 24-well plate using a blade with the guide of a ruler. For each well, three evenly distributed lines which horizontally crossed the well were scratched. Two days after transfection, the cell fusion rate reached 90%. The wound were created by scratching on the cell layer with micropipette tip in a direction perpendicular to the lines on the back of the plate with the aid of ruler. During the operation, the micropipette tip should be kept perpendicular to the plate, and not tilt to one side. The cells were washed for three times with PBS to remove the exfoliated cells after being scratched, and 1640 culture medium supplemented with 2% FBS was added to the cells. The cells were cultured in an incubator at 37° C., in an air atmosphere containing 5% CO2. The cells were photographed in the same field of view at each indicated time point.

In assay [2] the test system is infiltration of endometrial stroma and glands into myometrium. Put plainly: Adenomyosis mouse model created with tamoxifen, pathological section. It counts as in vivo, mice. As for the experimental part: Disodium salt of PQQ was used in the present experiment (PQQ-Na2, donated by MITSUBISHI gas chemical (MGC), Japan). The salt was dissolved with water and the concentration of its mother liquid is 1 mg/mL.
In the present Example, the mouse model of adenomyosis was created with tamoxifen. This method is easy to operate, the rate of molding can reach 100%, and the difference between the model mouses caused by the operation is small. At 2˜5 days after birth (the birth day was the first day), the mice were fed with 5 ul/(g·BW) peanut oil/lecithin/condensed milk mixture (volume ratio 2:0.2:3) supplemented with 0.2 mg/ml tamoxifen (produced by shanghai Fudan Fuhua Pharmaceutical Co, Ltd.) by drip feeding. In the negative control group, the mice were fed with peanut oil/lecithin/condensed milk mixture (volume ratio 2:0.2:3), with no tamoxifen added. All the mice were exposed to light for 12 h/day, and were reared by maternal lactation during 1-21 days of age. After 22 days of birth, the mice were separated with mother mice, and the female mice were reserved for the next experiment.
After 3 months, 7 model mice were killed after anesthesia. […] The remaining model mice were divided into 5 groups with 20 mice in each group. One of the groups was chosen as model control group (fed with normal water). The drinking water for other group were supplemented with PQQ (1 mg/kg/day), NAC (10 mg/kg/day), PQQ (1 mg/kg/day) +NAC (10 mg/kg/day) (denoted by P+N (H)); PQQ (0.2 mg/kg/day) +NAC (5 mg/kg/day) (denoted by P+N (L)).
After treatment with drugs for 4 weeks, the mice were killed by anesthesia. The uterus was surgically removed and the invasion of endometria into myometrium was analyzed by the pathological section.

[3] abbreviates: 4 weeks in drinking water, PQQ (disodium salt) 1 mg/kg/day, NAC 10 mg/kg/day, P+N (H) 1+10, P+N (L) 0.2+5 mg/kg/day.

For `O=C(O)c1cc(C(=O)O)c2c(n1)C(=O)C(=O)c1cc(C(=O)O)[nH]c1-2` [PQQ, pyrroloquinoline quinone], the “migration of endometrial cells (scratch healing)” value in assay [1] (PQQ 30 nM, P>0.05) is given as “partially restrain the migration of the endometrial cells”. Further, the scratch healing entry in assay [1] (PQQ 300 nM) was “significantly inhibit scratch healing”. For the same compound, the “scratch coverage rate lower than in the control group” value in assay [1] (PQQ 3 μM, 72 h) came to 42%. In addition, in assay [1] (PQQ 3 μM), the scratch healing result was “significantly inhibit scratch healing”. For the same compound, in assay [2] (setting [3]), the “infiltration of endometrial glands, positive animals/total animals” value was 9/20*# and the “infiltration of endometrial stroma, positive animals/total animals” value was 10/20*#. Besides, the “number of animals with infiltration of endometrial stroma and glands compared with model control group” value in assay [2] (after 4 weeks treatment, PQQ as disodium salt) is on record as “evidently lower than that in the model control group”.
